Several values for one entry are separate records, joined by “and”; a condition that tells them apart may be missing. Equal entries are not always repeated. Where two headings read alike, the source gives them in different places.
Legend:
β4GalTI [1] = conditions: cited from earlier work
[2] = test system: sialyl Lewis X in HL-60, LS180, murine Lewis lung carcinoma, B16 murine melanoma cells; assay: Inhibition of sialyl Lewis X formation in cultured cells; type: cell-based
Source text: The disaccharides can be acylated with, e.g., acetyl, butyryl or benzoyl groups to reduce their hydrophilicity and make them permeable to cell membranes. […] The various disaccharides described above and their acylated or aryl derivatives are logical extensions of the present invention. In addition, analogs of the above compounds in which critical hydroxyl groups are missing or alkylated would bind to glycosyltransfersase and inhibit their activity.

β4GalTI [3] = assay: Acceptor specificity and inhibitory action of GlcNAc derivatives (β4galactosyltransferase); type: biochemical; conditions: no reference given
Source text: The compounds in Table 1 were selected based on information about β4GalTI, also known as lactose synthase. The enzyme adds galactose to GlcNAc-terminated oligosaccharides on glycoproteins and glycolipids, and will produce lactose in the presence of the cofactor, α-lactalbumin (Berger et al., Biochimie., 85, 261-274, 2003). It is part of a multigene family of β4galactosyltransferases (Hennet, Cell Mol Life. Sci., 59, 1081-1095, 2002; Amado et al., Biochim. Biophys. Acta Gen. Subj., 1473, 35-53, 1999). β4GalTI has been studied kinetically, its substrate specificity has been well documented, and X-ray structures with and without UDP-Gal are available (Gastinel et al., EMBO J., 18, 3546-3557, 1999; Ramakrishnan et al., J. Mol. Biol., 310, 205-218, 2001; Ramakrishnan et al., J. Mol. Biol., 318, 491-502, 2002).
β4GalTI will act on free GlcNAc, GlcNAc-terminated oligosaccharides and GlcNAc glycosides, including GlcNAcβ3Gal-R (Table 2). […] One possibility for the discrepancy may be that the large aromatic aglycone in our compound may facilitate binding to the enzyme. […]

[4] = test system: sLe^X on LS180 cell surface; assay: ELISA with CSLEX-1 mAb of cell-surface sLe^X; type: cell-based, human; conditions: LS180 cells
[5] = test system: LS180 cells adhering to recombinant E- or P-selectin; assay: Cell adhesion to immobilized selectins, control values given for E- and P-selectin together; type: cell-based, human
Experimental: Cell adhesion to immobilized selectins. 96-well plates were coated overnight at 4° C. with recombinant E-selectin (4 μg/ml) or P-selectin (2 μg/ml) (R & D Systems) and blocked with 1% BSA/PBS. LS180 cells were grown for 5 days with various amounts of acetylated disaccharide, harvested, labeled with Calcein AM (5 μM, Molecular Probes) in DMEM/1% FBS, and allowed to settle at room temperature on selectin-coated wells (5×10^4 cells/well). Plates were then stirred at 75 rpm for 30 min (Orbit shaker, Lab-Line Instruments) followed by immersion upside-down in a vessel filled with Hank's buffered saline solution (HBSS, Sigma), which allowed non-adherent cells to fall under gravity. St John et al., J. Immunol Methods, 170: 159-166, 1994. The wells were then washed by aspiration using HBSS. LS180 cells were less adherent to P-selectin, so the immersion step was not necessary prior to washing. […] Fluorescence was measured using a 96-well fluorimeter (CytoFluor II), and the average of triplicate measurements was determined±standard error. Cell viability was judged to be >90% by Trypan blue exclusion at the end of each experiment.
Adhesion to selectins is altered in disaccharide-treated tumor cells. Treatment of LS180 cells with AcGnG-NM was not toxic to the cells up to 100 μM based on growth curves and exclusion of Trypan blue. […]

U937 cells = assay: sLe^X expression in U937 cells; type: cell-based
Source text: (§1) A 4-deoxy modified acetylated disaccharide inhibits sLe^X expression in the absence of oligosaccharide priming.

mixed oligosaccharides = assay: Oligosaccharide priming, [6-3H]Gal incorporation; type: cell-based
Source text: as §1

LLC cells = assay: Experimental metastasis of pretreated LLC cells; type: in vivo, mice; conditions: cells treated 5 days, 3 weeks
Experimental: (A) LLC cells were treated in culture for 4 days with peracetylated GlcNAcβ3Gal-NM or vehicle (DMSO/propylene glycol, v/v 1:1). Single-cell suspensions (2×10^5) were injected in the tail-veins of Es1(e) mice. After 3 weeks, the mice were sacrificed and the number of tumors present on the surface of the lungs was determined by visual inspection.
LLC cells were treated in culture for 5 days with 4-deoxy AcGnG-NM, AcGnG-NM or vehicle (DMSO:propylene glycol) and then a single-cell suspension (2×10^5 cells) was injected in the tail vein of mice. After 3 weeks, the number of tumors present on the surface of the lungs was determined.

[6] = test system: Lewis carbohydrate antigens on cells; conditions: monosaccharide; cited from earlier work
[7] = aromatic aglycones, read-out: Ki

For `OC[C@@H]1C[C@H](O)[C@@H](O)C(O)O1` (some centres unmarked) [Compound 4-deoxy-Glc, 4-deoxy-Glc], the “inhibition of β4GalT1” value (β4GalTI [1]; in the presence of lactalbumin) is given as “weak inhibitor”.

For `CO[C@@H]1O[C@H](CO)[C@H](O)[C@H](O[C@@H]2O[C@H](CO)[C@@H](O)[C@H](F)[C@H]2NC(C)=O)[C@H]1O` [3′-F-GlcNAcβ3Galβ-OMe], the Ki (β4GalTI [1]; read-out: Ki) is given as 2700 µM.

For `CO[C@@H]1O[C@H](CO)[C@@H](O)[C@H](OC)[C@H]1NC(C)=O` [3-O-methyl-GlcNAcβ-O-Me], the Km (β4GalTI [1]; acceptor, read-out: Km) is listed as 77000 µM and the Vmax (β4GalTI [1]) is listed as 2.4 nmol/min.

For “Galβ1,4GlcNAcβ-O-naphthalenemethanol [AcGGn-NM]”, the “formation of sialyl Lewis X” value [2] was “inhibit the formation of sialyl Lewis X”.

For `CC(=O)NC1C(Oc2ccc3ccccc3c2)OC(CO)C(O)C1O` (centres unmarked) [GlcNAcβ-O-2-naphthol], the Ki (β4GalTI [1]; [7]) is listed as 9.5 µM.

For `CC(=O)NC1C(Oc2cccc3ccccc23)OC(CO)C(O)C1O` (centres unmarked) [GlcNAcβ-O-1-naphthol], the Ki (β4GalTI [1]; [7]) is given as 22 µM.

For `CC(=O)NC1C(OCc2ccccc2)OC(CO)C(N)C1O` (centres unmarked) [4-NH2-GlcNAcβ-OBn], the Km (β4GalTI [1]; acceptor, unit not given) is given as “Inactive”, the Ki (β4GalTI [1]; read-out: Ki) is given as 850 µM and the Vmax (β4GalTI [1]; unit not given) is given as “Inactive”.

For `COC1OC(CO)C(O)C(OC2OC(CS)C(O)C(O)C2NC(C)=O)C1O` (centres unmarked) [6′-thio-GlcNAcβ3Galβ-OMe], the Km (β4GalTI [1]; acceptor, unit not given) is given as “Inactive”, the “inhibition of the enzyme (β4GalT1)” value (β4GalTI [1]) is given as “weak inhibitor” and the Ki (β4GalTI [1]; read-out: Ki) is given as 1000 µM. For the same compound, the Vmax (β4GalTI [1]; unit not given) was “Inactive”.

For `COC1OC(COC2OC(CO)CC(O)C2NC(C)=O)C(O)C(O)C1O` (centres unmarked) [4′-deoxy-GlcNAcβ6Glcβ-OMe], the Km (β4GalTI [1]; acceptor, unit not given) is given as “Inactive” and the Ki (β4GalTI [1]; result in words) is given as “No inhibition”.

In the case of `CO[C@@H]1O[C@H](CO[C@@H]2O[C@H](CS)[C@@H](O)[C@H](O)[C@H]2NC(C)=O)[C@@H](O)[C@H](O)[C@H]1O` [6′-thio-GlcNAcβ6Glcβ-OMe], the Km (β4GalTI [1]; acceptor, read-out: Km) is given as 1200 µM.

In the case of `CO[C@@H]1O[C@H](CO)[C@@H](O)C[C@H]1NC(C)=O` [3-deoxy-GlcNAcβ-OMe], the Km (β4GalTI [1]; acceptor, read-out: Km) is given as 4200 µM.

In the case of `CC(=O)N[C@H]1[C@H](Oc2c(C)ccc3ccccc23)O[C@H](CO)[C@@H](O)[C@@H]1O` [GlcNAcβ-O-2-methylnaphthol], the Ki (β4GalTI [1]; [7]) is given as 3.5 µM.

For `COC1OC(CO)C(S)C(O)C1NC(C)=O` (centres unmarked) [4-thio-GlcNAcβ-OMe], the Km (β4GalTI [1]; acceptor, unit not given) is given as “Inactive”, the Ki (β4GalTI [1]; result in words) is given as “No inhibition” and the Vmax (β4GalTI [1]; unit not given) is given as “Inactive”.

With `CC(=O)N[C@H]1[C@H](O[C@H]2[C@@H](O)[C@@H](CO)O[C@@H](OCc3ccc4ccccc4c3)[C@@H]2O)O[C@H](CO)[C@@H](O)[C@@H]1O` [GlcNAcβ3Galβ-O-2-NM] the Km (β4GalTI [3]) was < 10 µM.

In the case of `CC(=O)N[C@H]1[C@H](Oc2c(Br)ccc3ccccc23)O[C@H](CO)[C@@H](O)[C@@H]1O` [GlcNAcβ-O-2-bromonaphthol], the Ki (β4GalTI [1]; [7]) is listed as 7.6 µM.

In the case of `COC1OC(CO)C(F)C(O)C1NC(C)=O` (centres unmarked) [4-fluoro-GlcNAcβ-OMe], the Km (β4GalTI [1]; acceptor, unit not given) is given as “Inactive”, the Ki (β4GalTI [1]; result in words) is given as “No inhibition” and the Vmax (β4GalTI [1]; unit not given) is given as “Inactive”.

With “Galβ1,3Galβ-O-naphthalenemethanol [AcGG-NM]” the “expression of sLe^X on the cell surface” value [4] was “no effect”, the “extent of adhesion normalized to cells not treated with disaccharide” value ([5]; E- and P-selectin, disaccharide at 50 μM) was 0.95-1.1 and the “adhesion to either selectin conjugate” value ([5]; LS180 cells) was “no effect”.

For `CO[C@@H]1O[C@H](C)[C@@H](O)[C@H](O)[C@H]1NC(C)=O` [6-deoxy-GlcNAcβ-O-Me], the Km (β4GalTI [1]; acceptor, read-out: Km) is given as 500 µM.

In the case of `COC1OC(CO)CC(O)C1NC(C)=O` (centres unmarked) [4-deoxy-GlcNAcβ-O-Me], the Km (β4GalTI [1]; acceptor, unit not given) is listed as “Inactive”, the “inhibition of the enzyme (β4GalT1)” value (β4GalTI [1]) is listed as “did not inhibit” and the Ki (β4GalTI [1]; result in words) is listed as “No inhibition”. For the same compound, the Vmax (β4GalTI [1]; unit not given) was “Inactive”.

For `COC1OC(CO)C(OC)C(O)C1NC(C)=O` (centres unmarked) [4-O-methyl-GlcNAcβ-O-Me], the Km (β4GalTI [1]; acceptor, unit not given) is listed as “Inactive”, the Ki (β4GalTI [1]; result in words) is listed as “No inhibition” and the Vmax (β4GalTI [1]; unit not given) is listed as “Inactive”.

With “4′-deoxy-GlcNAcβ3Gal-O-NM [4-deoxy AcGnG-NM]” the “sLe^X expression” value (U937 cells) was “inhibit sLe^X expression”, the “sLe^X expression” value (U937 cells; listed as 4-deoxy-GlcNAcβ3Gal-NM) was “inhibits formation of sLe^X” and the “incorporation of [6-^3H]Gal into mixed oligosaccharides” value (mixed oligosaccharides) was “does not”. The “experimental metastasis (tumors on the surface of the lungs)” value (LLC cells) was “inhibited experimental metastasis”.

In the case of `CO[C@@H]1O[C@H](CO)[C@H](O)[C@H](O[C@@H]2O[C@H](CO)[C@@H](O)[C@H](O)[C@H]2NC(C)=O)[C@H]1O` [GlcNAcβ3Galβ-OMe], the Km (β4GalTI [1]; acceptor, read-out: Km) is listed as 1100 µM.

For `CC(=O)N[C@H]1C(O)O[C@H](CO)[C@@H](O)[C@@H]1O` (some centres unmarked) [GlcNAc], the Km (β4GalTI [1]; read-out: Km) is given as 1000 to 10000 µM.

For `COC[C@H]1O[C@@H](OC)[C@H](NC(C)=O)[C@@H](O)[C@@H]1O` [6-O-methyl-GlcNAcβ-O-Me], the Vmax (β4GalTI [1]) is listed as 1.1 nmol/min.

In the case of `CO[C@@H]1O[C@H](CO)[C@@H](O)[C@H](O)[C@H]1NC(C)=O` [GlcNAcβ-O-Me], the Km (β4GalTI [1]; acceptor, read-out: Km) is listed as 1300 µM and 1800 µM and 1500 µM.

For `COC1OC(CO)C(O)C(OC2OC(CO)CC(O)C2NC(C)=O)C1O` (centres unmarked) [4′-deoxy-GlcNAcβ3Galβ-OMe], the Km (β4GalTI [1]; acceptor, unit not given) is listed as “Inactive”, the “inhibition of the enzyme (β4GalT1)” value (β4GalTI [1]) is listed as “did not inhibit” and the Ki (β4GalTI [1]; result in words) is listed as “No inhibition”.

In the case of `CC(=O)N[C@H]1[C@@H](OCc2ccccc2)O[C@H](CO)[C@H](O)[C@@H]1O` [GalNAcα-O-benzyl], the “concentration needed to achieve a similar level of inhibition” value [6] is listed as 1 to 5 mM.
